19 compounds from US5714576A, “Linear analogs of alpha-msh fragments” (Competitive Technologies, Inc., priority 1997, dated 1998) can be followed below.

Like-named read-outs stand apart in the source and are kept apart here. Positions of bridges follow the written chain, without caps; N, C: chain ends. Non-standard residues stand in square brackets, D forms with d. Residues, ends and D or L forms follow the SMILES beside them. Nle = CCCC[C@H](N)C(=O)O; Dab = NCC[C@H](N)C(=O)O

The test system of assay [1] is Lizard (Anolis carolinensis) Skin. The assay is classed as cell-based. The settings on record: for Residual Activity Lizard (prolonged action): linear analogues. As for the experimental part:
(§1) The biological potencies of alpha-MSH, the linear and cyclic analogues were determined by their ability to stimulate melanosome dispersion in vitro in the frog and lizard bioassays. This in vitro assay provides clear cut dose response curves (between 2.5×10^-11 and 4×10^-10 M) and can detect minimal concentration of alpha-MSH of about 10^-11 M. The assay is based upon the centrifugal dispersion of melanosomes (melanin granules) within the dendritic processes of integumental dermal melanophores leading to darkening of the skin. All the test solutions were prepared via serial dilutions from a stock solution (10^-4 M). The frogs (Rana pipiens) used in these evaluations were obtained from Kons Scientific, Germantown, Wis., and the lizards (Anolis carolinensis) were from the Snake Farm, La Place, La.

The subject of assay [2] is Frog (Rana pipiens) Skin. The assay is classed as cell-based. As for the experimental part:
as §1

Where [3] appears, read: cyclic analogues, alpha-MSH = 1.0.

With `CCCC[C@H](NC(=O)[C@H](CO)NC(=O)[C@H](Cc1ccc(O)cc1)NC(=O)[C@H](CO)NC(C)=O)C(=O)N[C@@H](CCC(=O)O)C(=O)N[C@@H](Cc1c[nH]cn1)C(=O)N[C@H](Cc1ccccc1)C(=O)N[C@@H](CCCNC(=N)N)C(=O)N[C@@H](Cc1c[nH]c2ccccc12)C(=O)N[C@@H](CCCCN)C(=O)NCC(=O)N1CCC[C@H]1C(=O)N[C@H](C(N)=O)C(C)C` [Analogue 1] (Ac-SYS[Nle]EH[dF]RWKGPV-NH2), in assay [1], the “Biological Potency Lizard” value was found to be 8.0 and the “Residual Activity Lizard (prolonged action)” value (shortened to “Residual Activity Lizard”) is “P(-)”. In assay [2], the “Biological Potency Frog” value was 6.0. In assay [2] (linear analogues), the “Residual Activity Frog (prolonged action)” value (“Residual Activity Frog” below) was “P(+)”.

With `CCCC[C@H](NC(=O)[C@H](CO)NC(=O)[C@H](Cc1ccc(O)cc1)NC(=O)[C@H](CO)NC(C)=O)C(=O)N[C@@H](CC(=O)O)C(=O)N[C@@H](Cc1c[nH]cn1)C(=O)N[C@H](Cc1ccccc1)C(=O)N[C@@H](CCCNC(=N)N)C(=O)N[C@@H](Cc1c[nH]c2ccccc12)C(=O)N[C@@H](CCCCN)C(=O)NCC(=O)N1CCC[C@H]1C(=O)N[C@H](C(N)=O)C(C)C` [Analogue 2] (Ac-SYS[Nle]DH[dF]RWKGPV-NH2), in assay [1], the “Biological Potency Lizard” value is on record as 8.0 and the “Residual Activity Lizard” value is “P(-)”. Moreover, the “Biological Potency Frog” value in assay [2] is reported as 9.0. For the same compound, the “Residual Activity Frog” value in assay [2] (linear analogues) is given as “P(+)”.

Take `CCCC[C@H](NC(C)=O)C(=O)N[C@@H](CCC(=O)O)C(=O)N[C@@H](Cc1c[nH]cn1)C(=O)N[C@H](Cc1ccccc1)C(=O)N[C@@H](CCCNC(=N)N)C(=O)N[C@@H](Cc1c[nH]c2ccccc12)C(=O)N[C@@H](CCCCN)C(=O)NCC(=O)N1CCC[C@H]1C(=O)N[C@H](C(N)=O)C(C)C` [Analogue 3] (Ac-[Nle]EH[dF]RWKGPV-NH2): in assay [1], the “Biological Potency Lizard” value was 8.0 and the “Residual Activity Lizard” value is “P(+)”. Moreover, in assay [2], the “Biological Potency Frog” value is 0.8. Besides, in assay [2] (linear analogues), the “Residual Activity Frog” value was “P(+)”.

Turning to `CCCC[C@H](NC(C)=O)C(=O)N[C@@H](CC(=O)O)C(=O)N[C@@H](Cc1c[nH]cn1)C(=O)N[C@H](Cc1ccccc1)C(=O)N[C@@H](CCCNC(=N)N)C(=O)N[C@@H](Cc1c[nH]c2ccccc12)C(=O)N[C@@H](CCCCN)C(=O)NCC(=O)N1CCC[C@H]1C(=O)N[C@H](C(N)=O)C(C)C` [Analogue 4] (Ac-[Nle]DH[dF]RWKGPV-NH2), in assay [1], the “Biological Potency Lizard” value stood at 10.0 and the “Residual Activity Lizard” value is “P(+)”. Besides, in assay [2], the “Biological Potency Frog” value was found to be 1.0. Moreover, the “Residual Activity Frog” value in assay [2] (linear analogues) was “P(+)”.

Regarding `CCCC[C@H](NC(C)=O)C(=O)N[C@@H](CC(=O)O)C(=O)N[C@@H](Cc1c[nH]cn1)C(=O)N[C@H](Cc1ccccc1)C(=O)N[C@@H](CCCNC(=N)N)C(=O)N[C@@H](Cc1c[nH]c2ccccc12)C(=O)NCC(N)=O` [Analogue 5], in assay [1], the “Biological Potency Lizard” value is 8.0 and the “Residual Activity Lizard” value is recorded as “P(-)”. The “Biological Potency Frog” value in assay [2] was 0.1. In assay [2] (linear analogues), the “Residual Activity Frog” value is listed as “P(-)”.

Consider `CCCC[C@H](NC(C)=O)C(=O)N[C@@H](CCC(=O)O)C(=O)N[C@@H](Cc1c[nH]cn1)C(=O)N[C@H](Cc1ccccc1)C(=O)N[C@@H](CCCNC(=N)N)C(=O)N[C@@H](Cc1c[nH]c2ccccc12)C(=O)N[C@@H](CCCCN)C(N)=O` [Analogue 6], for which, in assay [1], the “Biological Potency Lizard” value was 8.0 and the “Residual Activity Lizard” value is “P(-)”. The “Biological Potency Frog” value in assay [2] came to 0.2. Moreover, the “Residual Activity Frog” value in assay [2] (linear analogues) is on record as “P(-)”.

With `CCCC[C@H](NC(C)=O)C(=O)N[C@@H](CC(=O)O)C(=O)N[C@@H](Cc1c[nH]cn1)C(=O)N[C@H](Cc1ccccc1)C(=O)N[C@@H](CCCNC(=N)N)C(=O)N[C@@H](Cc1c[nH]c2ccccc12)C(=O)N[C@@H](CCCCN)C(N)=O` [Analogue 7], in assay [1], the “Biological Potency Lizard” value came out at 8.0 and the “Residual Activity Lizard” value is “P(-)”.

With `CCCC[C@H](NC(C)=O)C(=O)N[C@@H](CCC(=O)O)C(=O)N[C@@H](Cc1c[nH]cn1)C(=O)N[C@H](Cc1ccccc1)C(=O)N[C@@H](CCCNC(=N)N)C(=O)N[C@@H](Cc1c[nH]c2ccccc12)C(=O)N[C@@H](CCCN)C(N)=O` [Analogue 8], in assay [1], the “Biological Potency Lizard” value turned out to be 8.0 and the “Residual Activity Lizard” value was “P(-)”. Moreover, the “Biological Potency Frog” value in assay [2] turned out to be 0.6. The “Residual Activity Frog” value in assay [2] (linear analogues) is recorded as “P(-)”.

Regarding `CCCC[C@H](NC(C)=O)C(=O)N[C@@H](CC(=O)O)C(=O)N[C@@H](Cc1c[nH]cn1)C(=O)N[C@H](Cc1ccccc1)C(=O)N[C@@H](CCCNC(=N)N)C(=O)N[C@@H](Cc1c[nH]c2ccccc12)C(=O)N[C@@H](CCCN)C(N)=O` [Analogue 9], in assay [1], the “Biological Potency Lizard” value turned out to be 10.0 and the “Residual Activity Lizard” value is on record as “P(-)”. In assay [2], the “Biological Potency Frog” value came to 0.9.

Regarding `CCCC[C@H](NC(C)=O)C(=O)N[C@@H](CCC(=O)O)C(=O)N[C@@H](Cc1c[nH]cn1)C(=O)N[C@H](Cc1ccccc1)C(=O)N[C@@H](CCCNC(=N)N)C(=O)N[C@@H](Cc1c[nH]c2ccccc12)C(=O)N[C@@H](CCN)C(N)=O` [Analogue 10] (Ac-[Nle]EH[dF]RW[Dab]-NH2), in assay [1], the “Biological Potency Lizard” value stood at 10.0 and the “Residual Activity Lizard” value is listed as “P(±)”. Moreover, in assay [2], the “Biological Potency Frog” value is given as 0.9. Moreover, in assay [2] (linear analogues), the “Residual Activity Frog” value is given as “P(±)”.

For `CCCC[C@H](NC(C)=O)C(=O)N[C@@H](CC(=O)O)C(=O)N[C@@H](Cc1c[nH]cn1)C(=O)N[C@@H](Cc1ccccc1)C(=O)N[C@@H](CCCNC(=N)N)C(=O)N[C@@H](Cc1c[nH]c2ccccc12)C(=O)N[C@@H](CCCCN)C(N)=O` [Analogue 14], in assay [1], the “Biological Potency Lizard” value was 0.08 and the “Residual Activity Lizard” value is reported as “P(-)”.

As to `CCCC[C@H](NC(=O)[C@H](CO)NC(=O)[C@H](Cc1ccc(O)cc1)NC(=O)[C@H](CO)NC(C)=O)C(=O)N[C@H]1CC(=O)NCCCC[C@@H](C(=O)NCC(=O)N2CCC[C@H]2C(=O)N[C@H](C(N)=O)C(C)C)NC(=O)[C@H](Cc2c[nH]c3ccccc23)NC(=O)[C@H](CCCNC(=N)N)NC(=O)[C@@H](Cc2ccccc2)NC(=O)[C@H](Cc2c[nH]cn2)NC1=O` [Analogue 21] (Ac-SYS[Nle]DH[dF]RWKGPV-NH2; lactam 5-10), the “Residual Activity Frog” value in assay [2] (cyclic analogues) is “p(+)”. Moreover, the “Biological Potency Frog” value in assay [2] (setting [3]) worked out at 8.0.

On to `CCCC[C@H](NC(=O)[C@H](CO)NC(=O)[C@H](Cc1ccc(O)cc1)NC(=O)[C@H](CO)NC(C)=O)C(=O)N[C@H]1CC(=O)NCCCC[C@@H](C(N)=O)NC(=O)[C@H](Cc2c[nH]c3ccccc23)NC(=O)[C@H](CCCNC(=N)N)NC(=O)[C@@H](Cc2ccccc2)NC(=O)[C@H](Cc2c[nH]cn2)NC1=O` [Analogue 22] (Ac-SYS[Nle]DH[dF]RWK-NH2; lactam 5-10), for which the “Residual Activity Frog” value in assay [2] (cyclic analogues) is “p(+)”. The “Biological Potency Frog” value in assay [2] (setting [3]) came out at 2.0.

Consider `CCCC[C@H](NC(=O)[C@H](CO)NC(=O)[C@H](Cc1ccc(O)cc1)NC(C)=O)C(=O)N[C@H]1CC(=O)NCCCC[C@@H](C(N)=O)NC(=O)[C@H](Cc2c[nH]c3ccccc23)NC(=O)[C@H](CCCNC(=N)N)NC(=O)[C@@H](Cc2ccccc2)NC(=O)[C@H](Cc2c[nH]cn2)NC1=O` [Analogue 23] (Ac-YS[Nle]DH[dF]RWK-NH2; lactam 4-9), for which the “Residual Activity Frog” value in assay [2] (cyclic analogues) is on record as “p(+)”. Also, the “Biological Potency Frog” value in assay [2] (setting [3]) came out at 0.7.

With `CCCC[C@H](NC(=O)[C@H](CO)NC(C)=O)C(=O)N[C@H]1CC(=O)NCCCC[C@@H](C(N)=O)NC(=O)[C@H](Cc2c[nH]c3ccccc23)NC(=O)[C@H](CCCNC(=N)N)NC(=O)[C@@H](Cc2ccccc2)NC(=O)[C@H](Cc2c[nH]cn2)NC1=O` [Analogue 24] (Ac-S[Nle]DH[dF]RWK-NH2; lactam 3-8), the “Residual Activity Frog” value in assay [2] (cyclic analogues) is recorded as “p(+)”. For the same compound, the “Biological Potency Frog” value in assay [2] (setting [3]) is given as 1.0.

Regarding `CCCC[C@H](NC(C)=O)C(=O)N[C@H]1CC(=O)NCCCC[C@@H](C(=O)NCC(N)=O)NC(=O)[C@H](Cc2c[nH]c3ccccc23)NC(=O)[C@H](CCCNC(=N)N)NC(=O)[C@@H](Cc2ccccc2)NC(=O)[C@H](Cc2c[nH]cn2)NC1=O` [Analogue 26] (Ac-[Nle]DH[dF]RWKG-NH2; lactam 2-7), the “Residual Activity Frog” value in assay [2] (cyclic analogues) is on record as “p(+)”. For the same compound, the “Biological Potency Frog” value in assay [2] (setting [3]) stood at 5.5.

For the compound `CCCC[C@H](NC(C)=O)C(=O)N[C@H]1CC(=O)NCCCC[C@@H](C(=O)NCC(=O)N2CCC[C@H]2C(N)=O)NC(=O)[C@H](Cc2c[nH]c3ccccc23)NC(=O)[C@H](CCCNC(=N)N)NC(=O)[C@@H](Cc2ccccc2)NC(=O)[C@H](Cc2c[nH]cn2)NC1=O` [Analogue 27] (Ac-[Nle]DH[dF]RWKGP-NH2; lactam 2-7), in assay [2] (cyclic analogues), the “Residual Activity Frog” value was “p(+)”. Further, the “Biological Potency Frog” value in assay [2] (setting [3]) is 4.0.

In the case of `CCCC[C@H](NC(C)=O)C(=O)N[C@H]1CC(=O)NCCCC[C@@H](C(=O)NCC(=O)N2CCC[C@H]2C(=O)N[C@H](C(N)=O)C(C)C)NC(=O)[C@H](Cc2c[nH]c3ccccc23)NC(=O)[C@H](CCCNC(=N)N)NC(=O)[C@@H](Cc2ccccc2)NC(=O)[C@H](Cc2c[nH]cn2)NC1=O` [Analogue 28] (Ac-[Nle]DH[dF]RWKGPV-NH2; lactam 2-7), the “Residual Activity Frog” value in assay [2] (cyclic analogues) is “p(+)”. Further, the “Biological Potency Frog” value in assay [2] (setting [3]) came out at 2.0.

For `CCCC[C@H](NC(=O)[C@H](CO)NC(C)=O)C(=O)N[C@H]1CC(=O)NCCCC[C@@H](C(=O)NCC(=O)N2CCC[C@H]2C(=O)N[C@H](C(N)=O)C(C)C)NC(=O)[C@H](Cc2c[nH]c3ccccc23)NC(=O)[C@H](CCCNC(=N)N)NC(=O)[C@@H](Cc2ccccc2)NC(=O)[C@H](Cc2c[nH]cn2)NC1=O` [Analogue 29] (Ac-S[Nle]DH[dF]RWKGPV-NH2; lactam 3-8), the “Residual Activity Frog” value in assay [2] (cyclic analogues) was “p(+)”. Also, in assay [2] (setting [3]), the “Biological Potency Frog” value amounted to 9.0.
